The values that follow come from publication PMC12015759, “A humanized Gs-coupled DREADD for circuit and behavior modulation” (Frontiers in Cellular Neuroscience, 2025).

Test [1] has as its target T1, hM3-ti23-Ds (Homo sapiens, UniProt P20309, A178S/A239G/A490L/D442R/DEL262-438/DEL444-462/DEL467-485/E259S/I254V/INS257[…]/K179L/K183A/K256R/K465M/K487H/L174F/L463M/R172S/R177Q/R180M/T175R/T182R/T258A/Y149C).
T1 sequence (P20309 with tags, fused parts or gaps Y149C/R172S/L174F/T175R/R177Q/A178S/K179L/R180M/T182R/K183A/A239G/I254V/K256R/INS257[…]/T258A/E259S/DEL262-438/D442R/DEL444-462/L463M/K465M/DEL467-485/K487H/A490L): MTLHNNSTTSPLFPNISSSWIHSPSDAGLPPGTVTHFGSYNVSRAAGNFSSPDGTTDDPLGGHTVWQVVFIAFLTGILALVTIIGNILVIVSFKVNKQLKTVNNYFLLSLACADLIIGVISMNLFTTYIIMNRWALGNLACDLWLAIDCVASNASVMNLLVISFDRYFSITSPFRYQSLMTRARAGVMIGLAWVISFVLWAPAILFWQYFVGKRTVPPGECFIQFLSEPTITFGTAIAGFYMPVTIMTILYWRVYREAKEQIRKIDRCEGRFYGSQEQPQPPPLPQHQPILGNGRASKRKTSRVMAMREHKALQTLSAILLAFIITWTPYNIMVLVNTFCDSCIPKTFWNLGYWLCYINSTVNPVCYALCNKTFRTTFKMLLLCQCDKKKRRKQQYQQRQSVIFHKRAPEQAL
As to the method:
(§1) As for the cAMP assay, HEK293T cells (ATCC) were seeded in 6-well plate with DMEM containing 10% fetal bovine serum. Upon reaching ~80% confluency, cells were transfected with DREADDs plasmids (30 ng), pCRE-Luc (GeneBank accession: AF053461.1, 600 ng) and pRL-SV40 (GeneBank accession: AF025845.2, 150 ng). The following day, cells were redistributed from 6-well plates to white opaque 96-well plates pre-coated with poly-L-lysine (Solarbio).
(§2) The plates were then placed back in the cell incubator for 6 h. The cAMP level was detected using a Dual Glo Luciferase Reporter Gene Assay Kit (YEASEN) following the manufacturer’s protocol. The data of each well was presented as the ratio of firefly luciferase luminescence to renilla luciferase luminescence.
(§3) We next examined whether the chemogenetic receptor ligand, CNO, could stimulate hM3-ti23-Ds and hM3Ds and induce up-regulation of cAMP level. We co-transfected HEK293T cells with engineered receptors and the reporter vector, pCRE-Luc, which contains a cAMP response element-driven firefly luciferase (Luc) ([Bokar et al., 1988]); pRL-SV40 encoding renilla luciferase was simultaneously transfected as a transfection efficiency control.

Test [2] deals with T2, hM3Ds (Homo sapiens, UniProt P20309, A178S/A239G/A490L/DEL258-409/DEL413-482/I254V/INS485[…]/K179L/K183A/K256R/K487Q/L174F/L483Q/R172S/R177Q/R180L/T175R/T182R/Y149C/Y255F).
T2 sequence (P20309 with tags, fused parts or gaps Y149C/R172S/L174F/T175R/R177Q/A178S/K179L/R180L/T182R/K183A/A239G/I254V/Y255F/K256R/DEL258-409/DEL413-482/L483Q/INS485[…]/K487Q/A490L): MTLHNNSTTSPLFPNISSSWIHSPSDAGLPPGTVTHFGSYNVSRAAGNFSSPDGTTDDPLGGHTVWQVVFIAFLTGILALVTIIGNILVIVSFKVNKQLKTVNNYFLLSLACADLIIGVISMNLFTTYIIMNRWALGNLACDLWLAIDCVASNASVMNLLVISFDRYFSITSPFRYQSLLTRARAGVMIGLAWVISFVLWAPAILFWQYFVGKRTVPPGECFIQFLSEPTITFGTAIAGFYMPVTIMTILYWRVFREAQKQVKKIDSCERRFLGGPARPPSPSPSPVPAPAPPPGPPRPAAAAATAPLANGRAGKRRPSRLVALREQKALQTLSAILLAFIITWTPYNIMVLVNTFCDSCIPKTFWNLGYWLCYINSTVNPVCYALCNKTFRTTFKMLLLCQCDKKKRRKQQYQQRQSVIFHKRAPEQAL
As to the method:
as §1, §2, §3

The target of test [3] is hM3Ds-M2 (Q402R) (Homo sapiens, UniProt P20309, A178S/A239G/A490L/DEL258-409/DEL413-482/I254V/INS485[…]/K179L/K183A/K256R/K487Q/L174F/L483Q/Q562R/R172S/R177Q/R180L/T175R/T182R/Y149C/Y255F). Conditions: CNO at 10 μM, compared to hM3Ds. As to the method: as §1, §2
Sequence of hM3Ds-M2 (Q402R) (P20309 with tags, fused parts or gaps with the stated changes): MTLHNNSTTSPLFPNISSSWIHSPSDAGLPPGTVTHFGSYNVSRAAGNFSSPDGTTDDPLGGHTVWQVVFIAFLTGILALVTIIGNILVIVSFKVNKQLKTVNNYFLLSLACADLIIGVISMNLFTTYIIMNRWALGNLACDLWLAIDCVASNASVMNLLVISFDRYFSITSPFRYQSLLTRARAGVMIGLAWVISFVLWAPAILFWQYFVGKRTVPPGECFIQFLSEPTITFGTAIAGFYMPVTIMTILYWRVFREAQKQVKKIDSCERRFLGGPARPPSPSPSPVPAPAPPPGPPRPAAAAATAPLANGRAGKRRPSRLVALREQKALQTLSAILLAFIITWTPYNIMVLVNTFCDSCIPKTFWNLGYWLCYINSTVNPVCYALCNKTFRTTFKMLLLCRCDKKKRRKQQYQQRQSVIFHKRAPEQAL
Test [4] concerns the target hM3Ds-M3 (D404G) (Homo sapiens, UniProt P20309, A178S/A239G/A490L/D564G/DEL258-409/DEL413-482/I254V/INS485[…]/K179L/K183A/K256R/K487Q/L174F/L483Q/R172S/R177Q/R180L/T175R/T182R/Y149C/Y255F). To be noted: CNO at 10 μM, compared to hM3Ds. As to the method:
as §1, §2

Test [5] has as its target hM3Ds-M4 (K405R) (Homo sapiens, UniProt P20309, A178S/A239G/A490L/DEL258-409/DEL413-482/I254V/INS485[…]/K179L/K183A/K256R/K487Q/K565R/L174F/L483Q/R172S/R177Q/R180L/T175R/T182R/Y149C/Y255F). Conditions: CNO at 10 μM, compared to hM3Ds. As to the method:
as §1, §2

Test [6] concerns the target hM3Ds-M5 (K406R) (Homo sapiens, UniProt P20309, A178S/A239G/A490L/DEL258-409/DEL413-482/I254V/INS485[…]/K179L/K183A/K256R/K487Q/K566R/L174F/L483Q/R172S/R177Q/R180L/T175R/T182R/Y149C/Y255F). Conditions: CNO at 10 μM, compared to hM3Ds. As to the method:
as §1, §2

For test [7], the target named is hM3Ds-M6 (K407R) (Homo sapiens, UniProt P20309, A178S/A239G/A490L/DEL258-409/DEL413-482/I254V/INS485[…]/K179L/K183A/K256R/K487Q/K567R/L174F/L483Q/R172S/R177Q/R180L/T175R/T182R/Y149C/Y255F). Conditions: CNO at 10 μM, compared to hM3Ds. As to the method:
as §1, §2

Sequence of hM3Ds-M5 (K406R) (P20309 with tags, fused parts or gaps with the stated changes): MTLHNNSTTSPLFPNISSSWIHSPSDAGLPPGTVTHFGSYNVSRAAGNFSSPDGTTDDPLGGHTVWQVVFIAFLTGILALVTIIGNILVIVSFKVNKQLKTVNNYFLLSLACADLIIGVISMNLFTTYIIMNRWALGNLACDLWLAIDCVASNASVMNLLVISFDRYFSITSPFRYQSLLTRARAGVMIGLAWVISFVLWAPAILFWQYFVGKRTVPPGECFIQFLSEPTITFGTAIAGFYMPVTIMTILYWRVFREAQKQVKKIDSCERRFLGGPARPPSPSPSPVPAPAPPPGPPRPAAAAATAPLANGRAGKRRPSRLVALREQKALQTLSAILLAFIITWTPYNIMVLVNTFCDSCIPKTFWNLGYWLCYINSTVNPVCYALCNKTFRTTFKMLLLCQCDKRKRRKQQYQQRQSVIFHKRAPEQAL
Sequence of hM3Ds-M6 (K407R) (P20309 with tags, fused parts or gaps with the stated changes): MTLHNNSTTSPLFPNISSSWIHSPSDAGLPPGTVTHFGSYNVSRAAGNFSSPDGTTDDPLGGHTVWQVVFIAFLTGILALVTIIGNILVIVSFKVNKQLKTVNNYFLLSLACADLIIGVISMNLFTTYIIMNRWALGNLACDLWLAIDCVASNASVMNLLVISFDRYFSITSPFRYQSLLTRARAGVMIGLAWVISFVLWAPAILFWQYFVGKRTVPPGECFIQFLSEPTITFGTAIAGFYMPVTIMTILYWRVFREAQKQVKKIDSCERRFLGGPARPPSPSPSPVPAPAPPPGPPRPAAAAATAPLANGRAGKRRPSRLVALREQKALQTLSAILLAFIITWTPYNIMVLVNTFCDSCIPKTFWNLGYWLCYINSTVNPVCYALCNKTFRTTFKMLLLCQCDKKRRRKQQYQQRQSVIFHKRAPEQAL
Sequence of hM3Ds-M4 (K405R) (P20309 with tags, fused parts or gaps with the stated changes): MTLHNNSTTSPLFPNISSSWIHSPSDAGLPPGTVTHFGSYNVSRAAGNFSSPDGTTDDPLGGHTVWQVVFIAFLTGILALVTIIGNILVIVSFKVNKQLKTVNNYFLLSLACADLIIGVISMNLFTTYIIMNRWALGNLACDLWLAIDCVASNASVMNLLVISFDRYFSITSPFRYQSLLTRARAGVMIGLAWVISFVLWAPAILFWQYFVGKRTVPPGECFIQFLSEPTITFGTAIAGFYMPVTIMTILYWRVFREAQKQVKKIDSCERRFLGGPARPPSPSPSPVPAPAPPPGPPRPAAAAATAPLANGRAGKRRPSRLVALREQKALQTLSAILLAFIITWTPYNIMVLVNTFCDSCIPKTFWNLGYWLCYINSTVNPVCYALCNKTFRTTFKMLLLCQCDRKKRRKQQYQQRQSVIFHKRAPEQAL
Sequence of hM3Ds-M3 (D404G) (P20309 with tags, fused parts or gaps with the stated changes): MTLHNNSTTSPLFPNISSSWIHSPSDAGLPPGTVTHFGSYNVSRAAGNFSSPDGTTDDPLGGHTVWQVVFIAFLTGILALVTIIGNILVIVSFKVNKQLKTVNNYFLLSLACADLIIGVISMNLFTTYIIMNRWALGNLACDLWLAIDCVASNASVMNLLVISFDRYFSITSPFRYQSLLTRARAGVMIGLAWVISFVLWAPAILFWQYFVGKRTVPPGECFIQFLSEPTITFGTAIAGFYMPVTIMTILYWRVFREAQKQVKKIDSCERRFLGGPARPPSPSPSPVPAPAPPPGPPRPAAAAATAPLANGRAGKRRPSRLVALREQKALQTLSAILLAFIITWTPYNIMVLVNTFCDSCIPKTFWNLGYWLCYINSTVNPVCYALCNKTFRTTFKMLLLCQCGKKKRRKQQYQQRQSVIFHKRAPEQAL

Usually EC50 stands for the concentration giving half of the maximal effect. Consider `C[N+]1([O-])CCN(C2=Nc3cc(Cl)ccc3Nc3ccccc32)CC1` [CNO, clozapine N-oxide], for which the “fold change in luciferase activity” value in test [1] (CNO at 10 μM, compared to rM3Ds and hM3Ds) is listed as “lower fold change”; in test [2] (CNO at 10 μM, hM3Ds, compared to rM3Ds), “comparable fold change”; in test [3], “reduced luciferase activity compared to hM3Ds”; in test [4] it was “reduced luciferase activity compared to hM3Ds”; in test [5], “reduced luciferase activity compared to hM3Ds”; in test [6] it was “reduced luciferase activity compared to hM3Ds”. For the same compound, the “fold change in luciferase activity” value in test [7] is given as “reduced luciferase activity compared to hM3Ds”. Also, the cAMP response result in test [1] (HEK293T) was “dose-dependently increased the cAMP response”; in test [2] (hM3Ds, HEK293T), “dose-dependently increased the cAMP response”. Further, in test [2] (CNO on hM3Ds, HEK293T, 6 h, firefly/renilla luciferase ratio), the EC50 turned out to be 1.26 ± 0.2 nM.
